The nature of data set [1]: Solubility of compound in saline at 0.4 mg/ml. It is filed as physicochemical. The settings on record: buffer.
Data set [2] in a line: Solubility of compound in methanol at 3.3 mg/ml. It is filed as physicochemical.
A short description of data set [3]: Solubility of compound in water at 1 mg/ml. It is filed as physicochemical. The settings on record: buffer.
In data set [4] the test system is COLO 205. Description: Antitumor activity against Homo sapiens (human) COLO205 xenografted in SCID mouse assessed as inhibition of tumor growth at 7.5 to 10 mg/kg, iv twice daily for 3 days for 2 administered as solution in 2.5% cremophor. The class given is functional, organism-based.
For data set [5], the system named is COLO 205. Description: Antitumor activity against Homo sapiens (human) COLO205 xenografted in SCID mouse assessed as tumor growth at 1 to 5 mg/kg, iv twice daily for 3 days for 2 administered as solution in 2.5% cremophor. The class given is functional, organism-based. On the technique in general: In xenograft studies the graft and the host belong to different species.

Data set [6] has as its system COLO 205. Description: Antitumor activity against Homo sapiens (human) COLO205 xenografted in SCID mouse assessed as inhibition of tumor growth at 2.5 to 10 mg/kg, iv twice daily for 3 days for 2 administered as solution in water. The class given is functional, organism-based.
Data set [7] deals with COLO 205. Description: Antitumor activity against Homo sapiens (human) COLO205 xenografted in SCID mouse assessed as tumor growth at 10 to 20 mg/kg, iv qd for 5 days for 2 administered as solution in 1% carboxymethy-cellulose. It is filed as functional, organism-based.
Data set [8] relates to COLO 205. Description: Antitumor activity against Homo sapiens (human) COLO205 xenografted in SCID mouse assessed as tumor growth at 5 to 20 mg/kg, ip 4 times daily for 3 days administered as solution in 1% carboxymethy-cellulose. The class given is functional, organism-based.
Data set [9] in a line: Solubility of compound in saline at 1 mg/ml. The class given is physicochemical. The settings on record: buffer.
A short description of data set [10]: Solubility of compound in methanol at 1 mg/ml. The class given is physicochemical.
Data set [11] in a line: Solubility of compound in water at 8 mg/ml. It is filed as physicochemical. The settings on record: buffer.
Data set [12] can be described thus: Solubility of compound in water at 0.8 mg/ml. It is filed as physicochemical. The settings on record: buffer.

This note sets out measurements from ChEMBL document CHEMBL3045583, “Increasing antitumor activity in vivo by enhancing acridine dimer solubility with salt preparations” (Med Chem Res, 2010).

Calls of active or inactive are those of the source. The rule behind the calls is not given here.

On to `COc1ccc2nc3cc(Cl)ccc3c(NCCCNCCCNc3c4ccc(Cl)cc4nc4ccc(OC)cc34)c2c1.O=C(O)C(F)(F)F.O=C(O)C(F)(F)F.O=C(O)C(F)(F)F`, for which the values for the solubility result in data set [1], in [2] and in data set [3] were “soluble”, “soluble” and “Insoluble”, respectively.
On to `COc1ccc2nc3cc(Cl)ccc3c(NCCCNCCCNc3c4ccc(Cl)cc4nc4ccc(OC)cc34)c2c1` [listing 1 of 2 here], for which the TGI result with COLO 205 [4] and in the data set with COLO 205 [6] was “Active” throughout. Besides, the result in the data set with COLO 205 [5], with COLO 205 [7] and in the data set on COLO 205 [8] was inactive.
On to `COc1ccc2nc3cc(Cl)ccc3c(NCCCNCCCNc3c4ccc(Cl)cc4nc4ccc(OC)cc34)c2c1` [listing 2 of 2 here], for which the solubility entry in [3] was “Insoluble”; in data set [9] it was “Insoluble”; in [10], “soluble”.
Take `CC(=O)O.CC(=O)O.CC(=O)O.COc1ccc2nc3cc(Cl)ccc3c(NCCCNCCCNc3c4ccc(Cl)cc4nc4ccc(OC)cc34)c2c1`: the solubility entry is recorded as “Insoluble” in data set [9], “soluble” in [11] and “soluble” in [10].
`COc1ccc2nc3cc(Cl)ccc3c(NCCCNCCCNc3c4ccc(Cl)cc4nc4ccc(OC)cc34)c2c1.CS(=O)(=O)O`: the values for the solubility entry in data set [12], in data set [9] and in data set [10] were “Insoluble”, “Insoluble” and “soluble”, respectively.
